Laboratory results taken from patent US11633370B2, “Use of scavengers of reactive gamma-ketoaldehydes to extend cell lifespan and healthspan” (Vanderbilt University, priority 2016, dated 2023).

Target: T1, recombinant human SIRT1 (Homo sapiens, UniProt Q96EB6)
T1 construct: purchased R&D Systems, Biotechne
T1 sequence (Q96EB6 1-747): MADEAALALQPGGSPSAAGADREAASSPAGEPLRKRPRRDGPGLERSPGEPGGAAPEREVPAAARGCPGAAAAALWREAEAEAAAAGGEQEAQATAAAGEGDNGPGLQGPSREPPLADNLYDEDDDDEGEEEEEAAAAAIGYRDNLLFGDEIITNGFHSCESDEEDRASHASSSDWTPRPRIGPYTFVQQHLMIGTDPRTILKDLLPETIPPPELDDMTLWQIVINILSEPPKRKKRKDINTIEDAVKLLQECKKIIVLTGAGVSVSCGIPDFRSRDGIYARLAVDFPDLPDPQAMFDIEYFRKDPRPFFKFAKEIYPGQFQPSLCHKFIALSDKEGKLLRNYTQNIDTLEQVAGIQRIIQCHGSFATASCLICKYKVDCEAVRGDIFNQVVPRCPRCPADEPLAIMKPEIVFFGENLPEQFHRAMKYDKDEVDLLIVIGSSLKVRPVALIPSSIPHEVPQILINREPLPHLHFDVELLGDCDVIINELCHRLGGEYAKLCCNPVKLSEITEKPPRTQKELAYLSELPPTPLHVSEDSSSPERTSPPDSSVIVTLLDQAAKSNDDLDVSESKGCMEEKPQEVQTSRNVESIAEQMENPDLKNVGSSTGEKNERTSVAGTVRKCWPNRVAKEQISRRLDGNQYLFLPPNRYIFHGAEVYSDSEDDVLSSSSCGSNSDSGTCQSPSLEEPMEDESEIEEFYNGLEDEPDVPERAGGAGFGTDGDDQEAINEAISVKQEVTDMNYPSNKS
Assay: NAD+-dependent deacetylation bioluminescence assay (SIRT-Glo)
Format: biochemical
Settings: Sirt-Glo luminescence assay, three independent experiments; read-out: IC50, inhibition of deacetylase activity
Procedure: Though SA treatment should prevent IsoK adduct formation on many different protein targets, and many of these proteins could have some impact on lifespan and healthspan, the present inventors determined that there would be specific proteins of particular importance in mediating SA's beneficial effects. Specifically, the present inventors recognized that SIR-2.1 would be one of these “high value targets” for several reasons. […] Recombinant human SIRT1 was incubated with increasing concentrations of synthetically pure IsoK, and enzymatic deacetylase activity was assessed using the luminescence based Sirt-Glo assay (Promega).
Relative activity of the NAD+-dependent histone deacetylase (HDAC) class III enzymes (sirtuins) was measured using the SIRT-Glo™ Assay and Screening System (Promega Corporation, Madison, Wis.) according to the manufacturer's instructions with minor modifications. […] Deacetylation of the peptide substrate is measured using a coupled enzymatic system with a protease in the reagent provided and then cleaves the luminogenic peptide to liberate aminoluciferin. Free aminoluciferin can be quantified using the Ultra-Glo™ firefly luciferase reaction to produce a stable, persistent emission of light. […] 15-E2-IsoK was synthesized by the method of Armanath et al. Luminescence was detected by a microplate reader (FLUOstar Optima microplate reader, BMG Labtechnologies).

For 15-E2-IsoK, the IC50 was 97.8 µM.
